Data taken from patent US20250092056A1, “URACIL DERIVATIVES HAVING VIRUS REPLICATION INHIBITORY ACTIVITY AND PHARMACEUTICAL COMPOSITION COMPRISING THE SAME” (Shionogi & Co., Ltd., priority 2022, published 2025).
“And” between values parts separate entries of the source, which are not always exact repeats. Equal values may be shown once. Read-outs that look alike come from different tables or passages of the source.

Experiments:
[1] = target: Recombinant SARS-CoV-2 3CL Protease (Severe acute respiratory syndrome coronavirus 2 (2019-nCoV) (SARS-CoV-2), UniProt P0DTD1); assay: biochemical; assay type: biochemical; settings: 50% SARS-CoV-2 3CL protease inhibitory concentration; read-out: IC50
SARS-CoV-2 = assay: Cytopathic effect (CPE) suppression effect confirmation test using HEK293T/ACE2-TMPRSS2 cells; assay type: cell-based
[2] = Severe acute respiratory syndrome coronavirus 2, HEK-293T, 72 h, read-out: EC50 (50% SARS-CoV-2 infected cell death inhibitory concentration), class, HEK293T/ACE2-TMPRSS2 cells, CPE suppression, CellTiter-Glo 2.0 after 3 days culture
[3] = Severe acute respiratory syndrome coronavirus 2, HEK-293T, 50% SARS-CoV-2 infected cell death inhibitory concentration, HEK293T/ACE2-TMPRSS2 cells, read-out: EC50
[4] = Severe acute respiratory syndrome coronavirus 2, HEK-293T, 72 h, read-out: EC50 (50% SARS-CoV-2 infected cell death inhibitory concentration), HEK293T/ACE2-TMPRSS2 cells, CPE suppression, CellTiter-Glo 2.0 after 3 days culture
[5] = Severe acute respiratory syndrome coronavirus 2, HEK-293T, 72 h, HEK293T/ACE2-TMPRSS2 cells, CPE suppression, CellTiter-Glo 2.0 after 3 days culture, read-out: EC50 (50% SARS-CoV-2 infected cell death inhibitory concentration), class

| Compound | IC50 [1] | EC50 (SARS-CoV-2; [2]) | EC50 (SARS-CoV-2; [3]) | further results |
| --- | --- | --- | --- | --- |
| CN1CCN(c2c(-c3ccc(F)c(Cl)c3)c(=O)n(-c3cncc(Cl)c3)c(=O)n2CC#N)CC1=O [Compound I-068] | < 10 nM | < 100 nM |  |  |
| Cc1cncc(-n2c(=O)c(Cc3cc(F)c(F)c(F)c3)c(N3CCC4(CC3)CNC(=O)O4)n(CC#N)c2=O)c1 [Compound I-114] | < 10 nM | 100 to 1000 nM |  |  |
| N#CCn1c(C2CC2)c(-c2ccc(F)c(Cl)c2)c(=O)n(-c2cncc(Cl)c2)c1=O [Compound I-388] | < 10 nM |  | < 100 nM |  |
| Cc1cncc(-n2c(=O)c(-c3cc(F)c(F)c(F)c3)c(CCC(C)(C)O)n(CC#N)c2=O)c1 [Compound I-213] | < 10 nM |  | < 100 nM |  |
| N#CCn1c(N2CC(c3ncccn3)C2)c(-c2ccc(F)c(Cl)c2)c(=O)n(-c2cncc(Cl)c2)c1=O [Compound I-233] | < 10 nM |  | < 100 nM |  |
| N#CCn1c(N2CC(O)(c3ncc(F)cn3)C2)c(-c2ccc(F)c(Cl)c2)c(=O)n(-c2cncc(Cl)c2)c1=O [Compound I-234] | 1.2 nM |  |  | EC50 (SARS-CoV-2; [4]): 6.6 nM |
| N#CCn1c(N2CC[C@](O)(C(F)F)C2)c(-c2ccc(F)c(Cl)c2)c(=O)n(-c2cncc(Cl)c2)c1=O (single isomer, unassigned) [Compound I-239] | 0.63 nM |  |  | EC50 (SARS-CoV-2; [4]): 3.15 nM |
| C[C@@H](C#N)n1c(N2CCC(F)(F)CC2)c(-c2ccc(F)c(Cl)c2)c(=O)n(-c2cncc(Cl)c2)c1=O (single isomer, unassigned) [Compound I-386] | < 10 nM |  | < 100 nM |  |
| Cc1cncc(-n2c(=O)c(Cc3cc(F)c(F)c(F)c3)c(N3CC4(CCOCC4)C3)n(CC#N)c2=O)c1 [Compound I-093] | 10 to 100 nM |  |  | EC50 (SARS-CoV-2; [5]): < 100 nM |
| C[C@@]1(O)CCN(c2c(-c3ccc(F)c(Cl)c3)c(=O)n(-c3cncc(Cl)c3)c(=O)n2CC#N)C1 (single isomer, unassigned) [Compound I-294] | < 10 nM |  | < 100 nM |  |
| Cc1cc(-n2c(=O)c(-c3ccc(F)c(Cl)c3)c(-c3ccc(C4CC4)cc3)n(CC#N)c2=O)cc(=O)[nH]1 [Compound I-183] | 10 to 100 nM and < 10 nM | < 100 nM |  |  |
| N#CCn1c(N2CC(O)(c3ncccn3)C2)c(-c2ccc(F)c(C(F)F)c2)c(=O)n(-c2cncc(C#N)c2)c1=O [Compound I-439] | < 10 nM |  | < 100 nM |  |
| N#CCn1c(N2Cc3cn[nH]c3C2)c(Cc2cc(F)c(F)c(F)c2)c(=O)n(-c2cc[nH]c(=O)c2)c1=O [Compound I-053] | 32 nM |  |  | EC50 (SARS-CoV-2; [4]): 2610 nM |
| Cc1cncc(-n2c(=O)c(Cc3cc(F)c(F)c(F)c3)c(N3CCC4(CCC(O)C4)C3)n(CC#N)c2=O)c1 (racemic) [Compound I-110] | < 10 nM | < 100 nM |  |  |
| N#CCn1c(N2CC(O)(C(F)(F)F)C2)c(-c2ccc(F)c(Cl)c2)c(=O)n(-c2cncc(Cl)c2)c1=O [Compound I-142] | 0.46 nM |  |  | EC50 (SARS-CoV-2; [4]): 3.35 nM |
| Cc1cncc(-n2c(=O)c(-c3ccc(F)c(Cl)c3)c(N3CC(C)(C)C3)n(CC#N)c2=O)n1 [Compound I-196] | < 10 nM | < 100 nM |  |  |
| Cc1cncc(-n2c(=O)c(Cc3cc(F)c(F)c(F)c3)c(N3CCC(C(F)(F)F)CC3)n(CC#N)c2=O)c1 [Compound I-119] | < 10 nM | < 100 nM |  |  |
| N#CCn1c(N2CCC(C(F)(F)F)CC2)c(-c2ccc(F)c(Cl)c2)c(=O)n(-c2cncc(Cl)c2)c1=O [Compound I-069] | < 10 nM | < 100 nM |  |  |
| N#CCn1c(Oc2cncc(Cl)c2)c(-c2ccc(F)c(Cl)c2)c(=O)n(-c2cncc(Cl)c2)c1=O [Compound I-246] | < 10 nM |  | 100 to 1000 nM |  |
| Cc1cncc(-n2c(=O)c(-c3ccc(F)c(Cl)c3)c(N3CCC4(CCOC4)C3)n(CC#N)c2=O)c1 (racemic) [Compound I-070] | < 10 nM | < 100 nM |  |  |
| N#CCn1c(N2CC3(C2)CC(O)(c2ccccc2)C3)c(-c2ccc(F)c(Cl)c2)c(=O)n(-c2cncc(Cl)c2)c1=O [Compound I-259] | 0.45 nM |  |  | EC50 (SARS-CoV-2; [4]): 5.44 nM |
| Cc1cncc(-n2c(=O)c(-c3ccc(F)c(Cl)c3)c(NS(=O)(=O)c3ccccc3)n(CC#N)c2=O)c1 [Compound I-276] | < 10 nM |  | < 100 nM |  |
| Cc1cncc(-n2c(=O)c(-c3ccc(F)c(Cl)c3)c(-c3cn[nH]c3)n(CC#N)c2=O)c1 [Compound I-279] | < 10 nM |  | < 100 nM |  |
| N#CCn1c(N2CC(O)(c3ncccn3)C2)c(-c2ccc(F)c(Cl)c2)c(=O)n(-c2cncc(C(F)(F)F)c2)c1=O [Compound I-261] | 18 nM |  |  | EC50 (SARS-CoV-2; [4]): 34.5 nM |
| COc1cnnc(-n2c(=O)c(-c3ccc(F)c(Cl)c3)c(N3CC4(C3)CC(F)(F)C4)n(CC#N)c2=O)c1 [Compound I-215] | < 10 nM |  | < 100 nM |  |

| Compound | IC50 [1] | EC50 (SARS-CoV-2; [2]) | EC50 (SARS-CoV-2; [3]) | further results |
| --- | --- | --- | --- | --- |
| Cc1cncc(-n2c(=O)c(-c3ccc(F)c(Cl)c3)c(-c3ccc(C(N)=O)cc3)n(CC#N)c2=O)c1 [Compound I-273] | < 10 nM |  | < 100 nM |  |
| Cc1cncc(-n2c(=O)c(Cc3cc(F)c(F)c(F)c3)c(N3CCC4(CCOCC4)C3)n(CC#N)c2=O)c1 [Compound I-111] | < 10 nM | < 100 nM |  |  |
| N#CCn1c(N2CC(OC(F)F)C2)c(-c2ccc(F)c(Cl)c2)c(=O)n(-c2cncc(C#N)c2)c1=O [Compound I-437] | < 10 nM |  | < 100 nM |  |
| CC(C)(O)C1CN(c2c(-c3ccc(F)c(Cl)c3)c(=O)n(-c3cnc4cc(Cl)ccn34)c(=O)n2CC#N)C1 [Compound I-133] | 10 to 100 nM |  |  | EC50 (SARS-CoV-2; [5]): < 100 nM |
| CC(C)(O)CCc1c(-c2ccc(F)c(Cl)c2)c(=O)n(-c2cncc(C#N)c2)c(=O)n1CC#N [Compound I-414] | < 10 nM |  | < 100 nM |  |
| N#CCn1c(C2CC(F)(C3CC3)C2)c(-c2ccc(F)c(Cl)c2)c(=O)n(-c2cncc(C(F)F)n2)c1=O (centres unmarked) [Compound I-390] | < 10 nM |  | < 100 nM |  |
| Cc1cncc(-n2c(=O)c(-c3ccc(F)c(Cl)c3)c(N3CC4(CCOC4)C3)n(CC#N)c2=O)n1 [Compound I-192] | < 10 nM | < 100 nM |  |  |
| N#CCn1c(Cl)c(-c2ccc(F)c(Cl)c2)c(=O)n(-c2cncc(Cl)c2)c1=O [Compound I-055] | 10 to 100 nM |  |  | EC50 (SARS-CoV-2; [5]): 100 to 1000 nM |
| Cc1cncc(-n2c(=O)c(-c3ccc(F)c(Cl)c3)c(-c3cnc(C)nc3)n(CC#N)c2=O)c1 [Compound I-022] | < 10 nM | < 100 nM |  |  |
| N#CCn1c(N2CC(O)(c3ncccn3)C2)c(-c2ccc(F)c(F)c2)c(=O)n(-c2cncc(Cl)c2)c1=O [Compound I-321] | < 10 nM |  | < 100 nM |  |
| N#CCn1c(N2CCC3(CC2)CNC(=O)O3)c(-c2ccc(F)c(Cl)c2)c(=O)n(-c2cncc(Cl)c2)c1=O [Compound I-067] | < 10 nM | 100 to 1000 nM |  |  |
| C[C@@H](C#N)n1c(N2CC[C@@](O)(C(F)F)C2)c(-c2ccc(F)c(F)c2)c(=O)n(-c2cncc(Cl)c2)c1=O (single isomer, unassigned) [Compound I-419] | < 10 nM |  | < 100 nM |  |
| N#CCn1c(N2CCC3(CCC(=O)N3)C2)c(-c2ccc(F)c(Cl)c2)c(=O)n(-c2cncc(Cl)c2)c1=O (racemic) [Compound I-061] | < 10 nM | 100 to 1000 nM |  |  |
| Cc1cncc(-n2c(=O)c(-c3ccc(F)c(Cl)c3)c(-c3ccc(F)cc3)n(CC#N)c2=O)c1 [Compound I-272] | < 10 nM |  | < 100 nM |  |
| CN1CCN(c2c(-c3ccc(F)c(Cl)c3)c(=O)n(-c3cncc(Cl)c3)c(=O)n2CC#N)C1=O [Compound I-244] | 10 to 100 nM |  | < 100 nM |  |
| N#CCn1c(N2CC(O)(C(F)F)C2)c(-c2ccc(F)c(Cl)c2)c(=O)n(-c2cncc(C(F)F)n2)c1=O [Compound I-345] | < 10 nM |  | < 100 nM |  |
| N#CCn1c(N2CC(O)(C(F)(F)F)C2)c(-c2ccc(F)c(Cl)c2)c(=O)n(-c2cnc3cc(Cl)ccn23)c1=O [Compound I-135] | 10 to 100 nM |  |  | EC50 (SARS-CoV-2; [5]): < 100 nM |
| Cc1cncc(-n2c(=O)c(-c3ccc(F)c(Cl)c3)c(Oc3ccccc3)n(CC#N)c2=O)c1 [Compound I-280] | < 10 nM |  | < 100 nM |  |
| Cc1[nH]ncc1-n1c(=O)c(Cc2cc(F)c(F)c(F)c2)c(N2Cc3ccccc3C2)n(CC#N)c1=O [Compound I-164] | > 100 nM | < 100 nM |  | EC50 (SARS-CoV-2; read-out: EC50 (50% SARS-CoV-2 infected cell death inhibitory concentration), class, HEK293T/ACE2-TMPRSS2 cells, CPE suppression, CellTiter-Glo 2.0 after 3 days culture): 100 to 1000 nM |
| Cc1cc(-c2c(-c3ccc(F)c(Cl)c3)c(=O)n(-c3cncc(Cl)c3)c(=O)n2CC#N)on1 [Compound I-314] | < 10 nM |  | < 100 nM |  |
| Cc1cncc(-n2c(=O)c(Cc3cc(F)c(F)c(F)c3)c(-c3ccc(C)c(C)c3)n(C(C#N)C(=O)O)c2=O)c1 (racemic) [Compound I-056] | 10 to 100 nM |  |  | EC50 (SARS-CoV-2; [5]): < 100 nM |
| Cc1cncc(-n2c(=O)c(Cc3cc(F)c(F)c(F)c3)c(N3CC4CC(F)(F)C4C3)n(CC#N)c2=O)c1 (racemic) [Compound I-103] | < 10 nM | < 100 nM |  |  |
| Cc1cncc(-n2c(=O)c(Cc3cc(F)c(F)c(F)c3)c(N3CCC(C(N)=O)CC3)n(CC#N)c2=O)c1 [Compound I-112] | < 10 nM | 100 to 1000 nM |  |  |
| CC(=O)Cn1c(C)c(-c2ccc(F)c(Cl)c2)c(=O)n(-c2cncc(Cl)c2)c1=O [Compound I-442] | 10 to 100 nM |  | < 100 nM |  |
| N#CCn1c(N2CC3(CCOC3)C2)c(Cc2cc(F)c(F)c(F)c2)c(=O)n(-c2cnc3cc(F)ccn23)c1=O [Compound I-145] | 10 to 100 nM |  |  | EC50 (SARS-CoV-2; [5]): 100 to 1000 nM |
